Reference: ChEMBL document CHEMBL3826930, “Antitumor activities of biscoumarin and dihydropyran derivatives” (Bioorg Med Chem Lett, 2016)
In brackets after ≈: the same amount, converted by molar mass.

Key:
[1] = Cell cycle arrest in human HuTu 80 cells assessed as accumulation at subG1 phase at 3 ug/ml after 48 hrs by propidium iodide staining based flow cytometry (reference value: 2.27 to 2.3%); assay type: functional; settings: HuTu80
[2] = system: Mus musculus; experiment: Acute toxicity in Kunming mouse assessed as survival at 500 mg/kg, administered as single dose measured on day 14 post dose; assay type: organism-based; settings: in vivo
[3] = system: HuTu80; experiment: Induction of apoptosis in human HuTu 80 cells assessed as necrotic cells at 3 ug/ml after 48 hrs by Annexin V/propidium iodide staining based flow cytometry (reference value: 5.3%); assay type: functional
[4] = system: HuTu80; experiment: Induction of apoptosis in human HuTu 80 cells assessed as live cells at 3 ug/ml after 48 hrs by Annexin V/propidium iodide staining based flow cytometry (reference value: 92.5%); assay type: functional
[5] = system: Mus musculus; experiment: Acute toxicity in Kunming mouse assessed as physical/abnormal changes in skin at 500 mg/kg, administered as single dose after 14 days; assay type: organism-based; settings: in vivo, 336 h
[6] = system: Mus musculus; experiment: Acute toxicity in Kunming mouse assessed as sleep pattern abnormality at 500 mg/kg, administered as single dose after 14 days; assay type: organism-based; settings: in vivo, 336 h
[7] = (§1) Cytotoxicity against HUVEC assessed as reduction in cell survival after 48 hrs by MTT assay; assay type: cell-based, Homo sapiens; settings: human, HUVEC cells
[8] = system: HUVEC; experiment: as §1; assay type: cell-based, Homo sapiens; settings: Homo sapiens, HUVEC, 48 h
[9] = system: HuTu80; experiment: Selectivity index, ratio of IC50 for HUVEC to IC50 for human HuTu 80 cells
[10] = system: HEK293; experiment: Selectivity index, ratio of IC50 for HEK293 cells to IC50 for human PANC1 cells; assay type: functional
[11] = system: Mus musculus; experiment: Acute toxicity in Kunming mouse assessed as structural abnormality in kidney at 500 mg/kg, administered as single dose after 14 days by hematoxylin and eosin staining based histological analysis; assay type: organism-based; settings: in vivo, 336 h
[12] = system: PANC-1; experiment: Selectivity index, ratio of IC50 for HUVEC to IC50 for human PANC1 cells
[13] = system: HuTu80; experiment: Induction of apoptosis in human HuTu 80 cells assessed as early apoptotic cells at 3 ug/ml after 48 hrs by Annexin V/propidium iodide staining based flow cytometry (reference value: 0.5%); assay type: functional
[14] = system: HEK293; experiment: (§2) Cytotoxicity against HEK293 cells assessed as reduction in cell survival after 48 hrs by MTT assay; assay type: cell-based, Homo sapiens; settings: Homo sapiens, HEK293, 48 h
[15] = as §2; assay type: cell-based, Homo sapiens; settings: human, HEK293 cells
[16] = Antiproliferative activity against human HuTu 80 cells after 48 hrs by MTT assay; assay type: functional, cell-based; settings: HuTu80, 48 h
[17] = system: HEK293; experiment: Selectivity index, ratio of IC50 for HEK293 cells to IC50 for human HuTu 80 cells; assay type: functional
[18] = Cell cycle arrest in human HuTu 80 cells assessed as accumulation at G1 phase at 3 ug/ml after 48 hrs by propidium iodide staining based flow cytometry (reference value: 43.3 to 43.32%); assay type: functional; settings: HuTu80
[19] = system: Mus musculus; experiment: Acute toxicity in Kunming mouse assessed as structural abnormality in liver at 500 mg/kg, administered as single dose after 14 days by hematoxylin and eosin staining based histological analysis; assay type: organism-based; settings: in vivo, 336 h
[20] = system: Mus musculus; experiment: Acute toxicity in Kunming mouse assessed as induction of salivation at 500 mg/kg, administered as single dose after 14 days; assay type: organism-based; settings: in vivo, 336 h
[21] = system: HEK293; experiment: Selectivity index, ratio of IC50 for HEK293 cells to IC50 for mouse 4T1 cells; assay type: functional
[22] = system: Mus musculus; experiment: Acute toxicity in Kunming mouse assessed as behavior pattern abnormality at 500 mg/kg, administered as single dose after 14 days; assay type: organism-based; settings: in vivo, 336 h
[23] = system: Mus musculus; experiment: Acute toxicity in Kunming mouse assessed as physical/abnormal changes in mucus membrane at 500 mg/kg, administered as single dose after 14 days; assay type: organism-based; settings: in vivo, 336 h
[24] = Cell cycle arrest in human HuTu 80 cells assessed as accumulation at S phase at 3 ug/ml after 48 hrs by propidium iodide staining based flow cytometry (reference value: 15.79 to 15.8%); assay type: functional; settings: HuTu80
[25] = system: Mus musculus; experiment: Acute toxicity in Kunming mouse assessed as tremor induction at 500 mg/kg, administered as single dose after 14 days; assay type: organism-based; settings: in vivo, 336 h
[26] = system: Mus musculus; experiment: Acute toxicity in Kunming mouse assessed as physical/abnormal changes in fur at 500 mg/kg, administered as single dose after 14 days; assay type: organism-based; settings: in vivo, 336 h
[27] = Antiproliferative activity against human PANC1 cells after 48 hrs by MTT assay; assay type: functional, cell-based; settings: PANC-1, 48 h
[28] = system: Mus musculus; experiment: Acute toxicity in Kunming mouse assessed as physical/abnormal changes in eyes at 500 mg/kg, administered as single dose after 14 days; assay type: organism-based; settings: in vivo, 336 h
[29] = system: 4T1; experiment: Selectivity index, ratio of IC50 for HUVEC to IC50 for mouse 4T1 cells
[30] = system: 4T1; experiment: Antiproliferative activity against mouse 4T1 cells after 48 hrs by MTT assay; assay type: functional, cell-based; settings: 4T1, 48 h
[31] = system: HuTu80; experiment: Induction of apoptosis in human HuTu 80 cells assessed as late apoptotic cells at 3 ug/ml after 48 hrs by Annexin V/propidium iodide staining based flow cytometry (reference value: 1.6%); assay type: functional
[32] = Cell cycle arrest in human HuTu 80 cells assessed as accumulation at G2/M phase at 3 ug/ml after 48 hrs by propidium iodide staining based flow cytometry (reference value: 23.2%); assay type: functional; settings: HuTu80

With `O=c1oc2ccccc2c(O)c1C(c1ccc(F)c(F)c1)c1c(O)c2ccccc2oc1=O` the Activity [1] was 25.1%, the Activity [2] was “Non-toxic” and the Activity [3] was 7.5%. The Activity [4] was 88%, the Activity [5] was “Non-toxic” and the Activity [6] was “Non-toxic”. For the same compound, the IC90 at 48 h [7] was 276 µg/mL (≈ 616 µM), the IC50 [8] was 112 µg/mL (≈ 251 µM) and the “Ratio IC50” value [9] was 7.5. The “Ratio IC50” value [10] was 1.3, the Activity [11] was “Non-toxic” and the “Ratio IC50” value [12] was 1.36. It also gave an Activity [13] of 1.2%, an IC50 [14] of 107 µg/mL (≈ 239 µM) and an IC90 at 48 h [15] of 221 µg/mL (≈ 492 µM). The IC50 [16] was 15 µg/mL (≈ 33.5 µM), the IC90 [16] was 28 µg/mL (≈ 62.4 µM) and the “Ratio IC50” value [17] was 7.1. The Activity [18] was 26.1%, the Activity [19] was “Non-toxic” and the Activity [20] was “Non-toxic”. The “Ratio IC50” value [21] was 2.2, the Activity [22] was “Non-toxic” and the Activity [23] was “Non-toxic”. For the same compound, the Activity [24] was 18.5%, the Activity [25] was “Non-toxic” and the Activity [26] was “Non-toxic”. For the same compound, the IC50 [27] was 82.4 µg/mL (≈ 184 µM), the IC90 [27] was 155 µg/mL (≈ 346 µM) and the Activity [28] was “Non-toxic”. The “Ratio IC50” value [29] was 2.3, the IC50 [30] was 47.9 µg/mL (≈ 107 µM) and the IC90 [30] was 98.4 µg/mL (≈ 219 µM). It also gave an Activity [31] of 3.2% and an Activity [32] of 15.3%.

With `N#CC1=C(N)Oc2c(c(=O)oc3ccccc23)C1c1ccc(C#N)cc1` (stereo not drawn) the IC50 [16] was > 300 µg/mL, the IC90 [16] was > 500 µg/mL and the IC50 [27] was > 300 µg/mL. For the same compound, the IC90 [27] was > 500 µg/mL, the IC50 [30] was > 300 µg/mL and the IC90 [30] was > 500 µg/mL.

With `CC1(C)CC(=O)C2=C(C1)OC(N)=C(C#N)C2c1cc(F)c(F)c(F)c1` (stereo not drawn) the IC50 [16] was 297 µg/mL (≈ 854 µM), the IC90 [16] was > 500 µg/mL and the IC50 [27] was 283 µg/mL (≈ 812 µM). The IC90 [27] was > 500 µg/mL, the IC50 [30] was 241 µg/mL (≈ 692 µM) and the IC90 [30] was > 500 µg/mL.

With `CC1(C)CC(=O)C2=C(C1)OC(N)=C(C#N)C2c1cc(C(F)(F)F)cc(C(F)(F)F)c1` (stereo not drawn) the IC50 [16] was > 300 µg/mL, the IC90 [16] was > 500 µg/mL and the IC50 [27] was > 300 µg/mL. The IC90 [27] was > 500 µg/mL, the IC50 [30] was > 300 µg/mL and the IC90 [30] was > 500 µg/mL.

With `COc1ccc(C(c2c(O)c3ccccc3oc2=O)c2c(O)c3ccccc3oc2=O)cc1` the Activity [2] was “Non-toxic”, the Activity [5] was “Non-toxic” and the Activity [6] was “Non-toxic”. For the same compound, the IC90 at 48 h [7] was 363 µg/mL (≈ 821 µM), the IC50 [8] was 199 µg/mL (≈ 450 µM) and the “Ratio IC50” value [9] was 3.7. For the same compound, the “Ratio IC50” value [10] was 3.9, the Activity [11] was “Non-toxic” and the “Ratio IC50” value [12] was 4.7. The IC50 [14] was 165 µg/mL (≈ 373 µM), the IC90 at 48 h [15] was 322 µg/mL (≈ 727 µM) and the IC50 [16] was 53.8 µg/mL (≈ 122 µM). For the same compound, the IC90 [16] was 103 µg/mL (≈ 233 µM), the “Ratio IC50” value [17] was 3.1 and the Activity [19] was “Non-toxic”. The Activity [20] was “Non-toxic”, the “Ratio IC50” value [21] was 1.9 and the Activity [22] was “Non-toxic”. For the same compound, the Activity [23] was “Non-toxic”, the Activity [25] was “Non-toxic” and the Activity [26] was “Non-toxic”. For the same compound, the IC50 [27] was 42.5 µg/mL (≈ 96.1 µM), the IC90 [27] was 82.5 µg/mL (≈ 186 µM) and the Activity [28] was “Non-toxic”. For the same compound, the “Ratio IC50” value [29] was 2.3, the IC50 [30] was 85.7 µg/mL (≈ 194 µM) and the IC90 [30] was 167 µg/mL (≈ 377 µM).

In the case of `CC1(C)CC(=O)C2=C(C1)OC(N)=C(C#N)C2c1ccc(S(C)(=O)=O)cc1` (stereo not drawn), the IC50 [16] is reported as > 300 µg/mL, the IC90 [16] is reported as > 500 µg/mL and the IC50 [27] is reported as > 300 µg/mL. For the same compound, the IC90 [27] was > 500 µg/mL, the IC50 [30] was > 300 µg/mL and the IC90 [30] was > 500 µg/mL.

With `COc1cccc(C2C(C#N)=C(N)OC3=C2C(=O)CC(C)(C)C3)c1` (stereo not drawn) the IC50 [16] was 283 µg/mL (≈ 873 µM), the IC90 [16] was > 500 µg/mL and the IC50 [27] was > 300 µg/mL. For the same compound, the IC90 [27] was > 500 µg/mL, the IC50 [30] was 248 µg/mL (≈ 764 µM) and the IC90 [30] was > 500 µg/mL.

For `COc1cc(C2C(C#N)=C(N)OC3=C2C(=O)CC3)cc(OC)c1OC` (stereo not drawn), the IC50 [16] was 185 µg/mL (≈ 541 µM), the IC90 [16] was 360 µg/mL (≈ 1050 µM) and the IC50 [27] was 200 µg/mL (≈ 583 µM). The IC90 [27] was 391 µg/mL (≈ 1140 µM), the IC50 [30] was 153 µg/mL (≈ 448 µM) and the IC90 [30] was 365 µg/mL (≈ 1070 µM).
